# Target: T1, Human ATX protein (Homo sapiens, UniProt Q13822)
# T1 construct: made in house
# Assay: ATX biochemical FRET assay with FS-3 substrate
# Settings: FS-3 2 μM, ATX 1.0 μg/mL, binned table, read-out: IC50 (μm)
# Text: ATX (Autotaxin) is a 125 KDa glycoprotein with lysophospholipase D (LPLD) activity that generates the bioactive lipid lysophosphatidic acid (LPA) from lysophosphatidylcholine (LPC). The ATX biochemical assay utilizes a FRET (fluorescence resonance energy transfer) technology platform. The fluorescence signal of FRET substrate FS-3 is quenched due to intra-molecular FRET of a fluorophore to a non-fluorescing quencher (Ferguson, C. G., et al., Org. Lett. 2006 May 11; 8(10): 2023-2026, which is incorporated by reference in its entirety). ATX catalyzes the hydrolysis of the substrate which separates the dabsyl quencher from the fluorescein reporter, which becomes fluorescent. The reaction is monitored by a SpectraMax M5 (Molecular Devices, Sunnyvale, Calif.) with at excitation wavelength 485 nm and emission wavelength 535 nm.
# 2×ATX assay buffer: 100 mM Tris, 280 mM NaCl, 10 mM KCl, 2 mM CaCl2, 2 mM MgCl2, pH 7.4.
# Human ATX protein: expressed and purified in house. Stored at −80° C.
# Substrate FS-3 (Echelon, L-2000): 100 μg in 77.74 μL H2O (1 mM stock), stored at −20° C.
# Compound dilution—All compounds were provided at 10 mM in 100% DMSO. In the first well, 2 μL of 10 mM compound was added to 78 μL of DMSO (1:40 dilution). In subsequent wells 3-fold dilution (total 10 dilutions) were performed.
# 1×ATX assay buffer was made up with a final concentration of 1 mg/mL fatty acid free-BSA using 2×ATX assay buffer, 10 mg/ml fatty acid free-BSA and ddH2O.
# ATX protein was diluted with 1×ATX assay buffer to a concentration of 1.32 μg/mL (1.32×). 38 μL was added per well to the assay plate. The final concentration of ATX in the reaction as 1.0 μg/mL.
# 2 μL per well of compounds was transferred to provide the desired concentration. The plate was centrifuged, then incubated at room temperature for 30 minutes on the shaker.
# FS-3 was diluted with 1×ATX assay buffer to a concentration of FS-3 of 10 μM (5×). Then, 10 μL was added per well to the assay plate. The final concentration of FS-3 in the reaction was 2 μM. The plate was centrifuged. The plate was kept shaking at room temperature for 2 hours. Because FS-3 substrate is light sensitive, plates were kept covered and protected from light.
# Fluorescence was measured using SpectraMax M5 (excitation at 485 nm/emission at 538 nm, top read).
row,Compound,IC50
1,"C[C@H]1CC[C@@H](Oc2ccc3c(CN4C5CCC4CC(C(=O)O)C5)cccc3c2C(F)(F)F)CC1 (stereo partly drawn) [Example 2, 8-((6-((cis-4-methylcyclohexyl)oxy)-5-(trifluoromethyl)naphthalen-1-yl)methyl)-8-azabicyclo[3.2.1]octane-3-carboxylic acid]",500 to 5000 nM
2,"C[C@H]1CC[C@@H](Oc2ccc3c(CN4C5CCCC4CC(C(=O)O)C5)cccc3c2C(F)(F)F)CC1 (stereo partly drawn) [Example 3, 9-((6-((cis-4-methylcyclohexyl)oxy)-5-(trifluoromethyl)naphthalen-1-yl)methyl)-9-azabicyclo[3.3.1]nonane-3-carboxylic acid]",500 to 5000 nM
3,"C[C@H]1CC[C@@H](Oc2ccc3c(CN4CCC[C@H](CC(=O)O)C4)cccc3c2C(F)(F)F)CC1 [Example 4, 2-((R)-1-((6-((cis-4-methylcyclohexyl)oxy)-5-(trifluoromethyl)naphthalen-1-yl)methyl)piperidin-3-yl)acetic acid]",< 500 nM
4,"C[C@H]1CC[C@@H](Oc2ccc3c(CNCCCC(=O)O)cccc3c2C(F)(F)F)CC1 [Example 8, 4-(((6-((cis-4-methylcyclohexyl)oxy)-5-(trifluoromethyl)naphthalen-1-yl)methyl)amino)butanoic acid]",< 500 nM
5,"C[C@H]1CC[C@@H](Oc2ccc3c(CNCCCCC(=O)O)cccc3c2C(F)(F)F)CC1 [Example 9, 5-(((6-((cis-4-methylcyclohexyl)oxy)-5-(trifluoromethyl)naphthalen-1-yl)methyl)amino)pentanoic acid]",500 to 5000 nM
6,"O=C(O)C1CC2CCCC(C1)N2Cc1cccc2c(C(F)(F)F)c(O[C@H]3CC[C@@H](C(F)(F)F)CC3)ccc12 (stereo partly drawn) [Example 13, 9-((5-(trifluoromethyl)-6-((cis-4-(trifluoromethyl)cyclohexyl)oxy)naphthalen-1-yl)methyl)-9-azabicyclo[3.3.1]nonane-3-carboxylic acid]",500 to 5000 nM
7,"C[C@H]1CC[C@@H](Oc2ccc3cccc(CN4CCC(C(=O)O)CC4)c3c2C(F)(F)F)CC1 [Example 21, 1-((7-((cis-4-methylcyclohexyl)oxy)-8-(trifluoromethyl)naphthalen-1-yl)methyl)piperidine-4-carboxylic acid]",500 to 5000 nM
8,"C[C@H]1CC[C@@H](Oc2ccc3cccc(CN4C5CCC4CC(C(=O)O)C5)c3c2C(F)(F)F)CC1 (stereo partly drawn) [Example 22, 8-((7-((cis-4-methylcyclohexyl)oxy)-8-(trifluoromethyl)naphthalen-1-yl)methyl)-8-azabicyclo[3.2.1]octane-3-carboxylic acid]",< 500 nM
9,"C[C@H]1CC[C@@H](Oc2ccc3cccc(CN4C5CCCC4CC(C(=O)O)C5)c3c2C(F)(F)F)CC1 (stereo partly drawn) [Example 23, 9-((7-((cis-4-methylcyclohexyl)oxy)-8-(trifluoromethyl)naphthalen-1-yl)methyl)-9-azabicyclo[3.3.1]nonane-3-carboxylic acid]",500 to 5000 nM
10,"O=C(O)C1CC2CCC(C1)N2Cc1cccc2ccc(O[C@H]3CC[C@@H](C(F)(F)F)CC3)c(C(F)(F)F)c12 (stereo partly drawn) [Example 26, 8-((8-(trifluoromethyl)-7-((cis-4-(trifluoromethyl)cyclohexyl)oxy)naphthalen-1-yl)methyl)-8-azabicyclo[3.2.1]octane-3-carboxylic acid]",500 to 5000 nM
11,"O=C(O)C1CC2CCCC(C1)N2Cc1cccc2ccc(O[C@H]3CC[C@@H](C(F)(F)F)CC3)c(C(F)(F)F)c12 (stereo partly drawn) [Example 27, 9-((8-(trifluoromethyl)-7-((cis-4-(trifluoromethyl)cyclohexyl)oxy)naphthalen-1-yl)methyl)-9-azabicyclo[3.3.1]nonane-3-carboxylic acid]",500 to 5000 nM

# Next, values leading:
row,IC50,Compound
1,500 to 5000 nM,"C[C@H]1CC[C@@H](Oc2ccc3c(CN4CCC(C(=O)O)CC4)cccc3c2C(F)(F)F)CC1 [Example 1, 1-((6-((cis-4-methylcyclohexyl)oxy)-5-(trifluoromethyl)naphthalen-1-yl)methyl)piperidine-4-carboxylic acid]"
2,> 5000 nM,"C[C@H]1CC[C@@H](Oc2ccc3c(CNC4(C(=O)O)CCCCC4)cccc3c2C(F)(F)F)CC1 [Example 5, 1-(((6-((cis-4-methylcyclohexyl)oxy)-5-(trifluoromethyl)naphthalen-1-yl)methyl)amino)cyclohexanecarboxylic acid]"
3,500 to 5000 nM,"C[C@H]1CC[C@@H](Oc2ccc3c(CNCC(=O)O)cccc3c2C(F)(F)F)CC1 [Example 6, 2-(((6-((cis-4-methylcyclohexyl)oxy)-5-(trifluoromethyl)naphthalen-1-yl)methyl)amino)acetic acid]"
4,< 500 nM,"C[C@H]1CC[C@@H](Oc2ccc3c(CNCCC(=O)O)cccc3c2C(F)(F)F)CC1 [Example 7, 3-(((6-((cis-4-methylcyclohexyl)oxy)-5-(trifluoromethyl)naphthalen-1-yl)methyl)amino)propanoic acid]"
5,< 500 nM,"C[C@H]1CC[C@@H](Oc2ccc3c(CNCCCCCC(=O)O)cccc3c2C(F)(F)F)CC1 [Example 10, 6-(((6-((cis-4-methylcyclohexyl)oxy)-5-(trifluoromethyl)naphthalen-1-yl)methyl)amino)hexanoic acid]"
6,500 to 5000 nM,"O=C(O)C1CCN(Cc2cccc3c(C(F)(F)F)c(O[C@H]4CC[C@@H](C(F)(F)F)CC4)ccc23)CC1 [Example 11, 1-((5-(trifluoromethyl)-6-((cis-4-(trifluoromethyl)cyclohexyl)oxy)naphthalen-1-yl)methyl)piperidine-4-carboxylic acid]"
7,< 500 nM,"O=C(O)C[C@H]1CCCN(Cc2cccc3c(C(F)(F)F)c(O[C@H]4CC[C@@H](C(F)(F)F)CC4)ccc23)C1 [Example 14, 2-((R)-1-((5-(trifluoromethyl)-6-((cis-4-(trifluoromethyl)cyclohexyl)oxy)naphthalen-1-yl)methyl)piperidin-3-yl)acetic acid]"
8,> 5000 nM,"O=C(O)C1(NCc2cccc3c(C(F)(F)F)c(O[C@H]4CC[C@@H](C(F)(F)F)CC4)ccc23)CCCCC1 [Example 15, 1-(((5-(trifluoromethyl)-6-((cis-4-(trifluoromethyl)cyclohexyl)oxy)naphthalen-1-yl)methyl)amino)cyclohexanecarboxylic acid]"
9,500 to 5000 nM,"O=C(O)CNCc1cccc2c(C(F)(F)F)c(O[C@H]3CC[C@@H](C(F)(F)F)CC3)ccc12 [Example 16, 2-(((5-(trifluoromethyl)-6-((cis-4-(trifluoromethyl)cyclohexyl)oxy)naphthalen-1-yl)methyl)amino)acetic acid]"
10,500 to 5000 nM,"O=C(O)CCNCc1cccc2c(C(F)(F)F)c(O[C@H]3CC[C@@H](C(F)(F)F)CC3)ccc12 [Example 17, 3-(((5-(trifluoromethyl)-6-((cis-4-(trifluoromethyl)cyclohexyl)oxy)naphthalen-1-yl)methyl)amino)propanoic acid]"
11,< 500 nM,"O=C(O)CCCNCc1cccc2c(C(F)(F)F)c(O[C@H]3CC[C@@H](C(F)(F)F)CC3)ccc12 [Example 18, 4-(((5-(trifluoromethyl)-6-((cis-4-(trifluoromethyl)cyclohexyl)oxy)naphthalen-1-yl)methyl)amino)butanoic acid]"
12,500 to 5000 nM,"O=C(O)CCCCNCc1cccc2c(C(F)(F)F)c(O[C@H]3CC[C@@H](C(F)(F)F)CC3)ccc12 [Example 19, 5-(((5-(trifluoromethyl)-6-((cis-4-(trifluoromethyl)cyclohexyl)oxy)naphthalen-1-yl)methyl)amino)pentanoic acid]"
13,< 500 nM,"O=C(O)CCCCCNCc1cccc2c(C(F)(F)F)c(O[C@H]3CC[C@@H](C(F)(F)F)CC3)ccc12 [Example 20, 6-(((5-(trifluoromethyl)-6-((cis-4-(trifluoromethyl)cyclohexyl)oxy)naphthalen-1-yl)methyl)amino)hexanoic acid]"
14,500 to 5000 nM,"C[C@H]1CC[C@@H](Oc2ccc3cccc(CN4CCC[C@H](CC(=O)O)C4)c3c2C(F)(F)F)CC1 [Example 24, 2-((R)-1-((7-((cis-4-methylcyclohexyl)oxy)-8-(trifluoromethyl)naphthalen-1-yl)methyl)piperidin-3-yl)acetic acid]"
15,500 to 5000 nM,"O=C(O)C1CCN(Cc2cccc3ccc(O[C@H]4CC[C@@H](C(F)(F)F)CC4)c(C(F)(F)F)c23)CC1 [Example 25, 1-((8-(trifluoromethyl)-7-((cis-4-(trifluoromethyl)cyclohexyl)oxy)naphthalen-1-yl)methyl)piperidine-4-carboxylic acid]"

# Same assay, conditions: FS-3 2 μM, ATX 1.0 μg/mL, read-out: ATX IC50
row,Compound,IC50
1,"C[C@H]1CC[C@@H](Oc2ccc3c(CN4CCC[C@H](CC(=O)O)C4)cccc3c2C(F)(F)F)CC1 [Example 4, 2-((R)-1-((6-((cis-4-methylcyclohexyl)oxy)-5-(trifluoromethyl)naphthalen-1-yl)methyl)piperidin-3-yl)acetic acid]",≤ 250 nM
2,"C[C@H]1CC[C@@H](Oc2ccc3cccc(CN4C5CCC4CC(C(=O)O)C5)c3c2C(F)(F)F)CC1 (stereo partly drawn) [Example 22, 8-((7-((cis-4-methylcyclohexyl)oxy)-8-(trifluoromethyl)naphthalen-1-yl)methyl)-8-azabicyclo[3.2.1]octane-3-carboxylic acid]",≤ 250 nM

# Results, then the compound that gave them:
row,IC50,Compound
1,≤ 250 nM,"C[C@H]1CC[C@@H](Oc2ccc3c(CNCCCCCC(=O)O)cccc3c2C(F)(F)F)CC1 [Example 10, 6-(((6-((cis-4-methylcyclohexyl)oxy)-5-(trifluoromethyl)naphthalen-1-yl)methyl)amino)hexanoic acid]"
2,≤ 250 nM,"O=C(O)C[C@H]1CCCN(Cc2cccc3c(C(F)(F)F)c(O[C@H]4CC[C@@H](C(F)(F)F)CC4)ccc23)C1 [Example 14, 2-((R)-1-((5-(trifluoromethyl)-6-((cis-4-(trifluoromethyl)cyclohexyl)oxy)naphthalen-1-yl)methyl)piperidin-3-yl)acetic acid]"
3,≤ 250 nM,"O=C(O)CCCCCNCc1cccc2c(C(F)(F)F)c(O[C@H]3CC[C@@H](C(F)(F)F)CC3)ccc12 [Example 20, 6-(((5-(trifluoromethyl)-6-((cis-4-(trifluoromethyl)cyclohexyl)oxy)naphthalen-1-yl)methyl)amino)hexanoic acid]"
